Molecules are shown by their SMILES. In brackets after ≈: the same amount, converted by molar mass. Structures can show the parent of a compound that is named as a salt.

The test system of data set [1] is Newcastle disease virus. Nature of the data set: Antiviral activity against Newcastle disease virus Miyadera infected in CEF assessed as suppression of <= 1% hemagglutinating activity by tube assay. The format is functional. The conditions noted are these: avian paramyxovirus 1, Miyadera.
A short description of data set [2]: Cytotoxicity against CEF after 24 hrs by microscopic analysis. On the set-up: species or system Gallus gallus. As to conditions: chicken; for MCC at 24 h: CEF cells; for MCC: 24 h.
The nature of data set [3]: Ratio of MCC for CEF to MIC for Newcastle disease virus Miyadera infected in CEF.
Data set [4] deals with Newcastle disease virus. As to the kind of experiment: Ratio of amantadine hydrochloride MIC to compound MIC for Newcastle disease virus Miyadera infected in CEF. The format is functional, avian paramyxovirus 1.

Take `O=C(NC1CCCCC1)C12CCCC3CC(CCC31)C2` (stereo not given): in the data set on Newcastle disease virus [1], the MIC was 2250 µM (≈ 620 µg/mL). In data set [2], this compound showed an MCC at 24 h of 2250 µM.
Turning to `O=C(Cl)C12CCCC3CC(CCC31)C2` (stereo not given), the MCC result in data set [2] was “ND(Unstable)”.
Regarding `O=C(NC12CC3CC(CC(C3)C1)C2)C12CCCC3CC(CCC31)C2` (stereo not given), the MIC in the data set with Newcastle disease virus [1] worked out at 7500 µM (≈ 2460 µg/mL). Moreover, the MCC at 24 h in data set [2] turned out to be 2000 µM.
Regarding `O[C@H]1C2CCCC3C[C@H]1CC[C@H]32` (relative stereo), in the data set on Newcastle disease virus [1], the MIC turned out to be 900 µM (≈ 150 µg/mL). In addition, in data set [2], the MCC at 24 h came out at 1800 µM.
For the compound `CCCCNC(=O)C12CCCC3CC(CCC31)C2` (stereo not given), the MIC in the data set on Newcastle disease virus [1] is 625 µM (≈ 156 µg/mL). The MCC at 24 h in data set [2] was 300 µM.
`O=C(O)C12CCCC3CC(CCC31)C2` (stereo not given): the MIC with Newcastle disease virus [1] worked out at 10000 µM (≈ 1940 µg/mL). This compound displayed an MCC at 24 h in data set [2] of 10000 µM.
Consider `OCC12CCCC3CC(CCC31)C2` (stereo not given), for which the MIC in the data set on Newcastle disease virus [1] is 440 µM (≈ 79.3 µg/mL). In data set [2], the MCC at 24 h came out at 870 µM.
On to `CC(=O)NC12CCCC3CC(CCC31)C2` (stereo not given), for which the MIC in the data set with Newcastle disease virus [1] stood at 750 µM (≈ 155 µg/mL). In addition, in data set [2], the MCC at 24 h is 3000 µM.
`Cl.NCC12CCCC3CC(CCC31)C2` (stereo not given): the Ratio in data set [3] came out at 2; in the data set on Newcastle disease virus [4], 30. For the same compound, the MIC with Newcastle disease virus [1] was 45 µM. Also, the MCC at 24 h in data set [2] is 90 µM.
For the compound `CCCCCCCCOC(=O)C12CCCC3CC(CCC31)C2` (stereo not given), the MIC in the data set with Newcastle disease virus [1] came out at 330 µM (≈ 101 µg/mL). The compound further displayed an MCC at 24 h in data set [2] of 490 µM.
Regarding `COC(=O)C12CCCC3CC(CCC31)C2` (stereo not given), in the data set with Newcastle disease virus [1], the MIC was 80 µM (≈ 16.7 µg/mL). In data set [2], the MCC at 24 h was 80 µM.
On to `Cl.NC12CCCC3CC(CCC31)C2` (stereo not given), for which the Ratio is listed as 2 in data set [3] and 30 in the data set on Newcastle disease virus [4]. The MIC in the data set with Newcastle disease virus [1] was found to be 25 µM. The MCC at 24 h in data set [2] was 200 µM.
In the case of `O[C@@H]1C2CCCC3C[C@@H]1CC[C@@H]32` (relative stereo), the MIC with Newcastle disease virus [1] was found to be 750 µM (≈ 125 µg/mL). For the same compound, in data set [2], the MCC at 24 h amounted to 750 µM.
Take `BrC12CCCC3CC(CCC31)C2` (stereo not given): in data set [2], the MCC result is listed as “ND(Unstable)”.
On to `O=C1C2CCC3C(CCCC13)C2` (stereo not given), for which the MIC with Newcastle disease virus [1] amounted to 1200 µM (≈ 197 µg/mL). This compound registered an MCC at 24 h in data set [2] of 2400 µM.
For `OC12CCCC3CC(CCC31)C2` (stereo not given) the same measures were 3000 µM (≈ 499 µg/mL) and 6000 µM.
With `C1CC2CC3CCC2C(C1)C3`, the MIC in the data set with Newcastle disease virus [1] was 670 µM (≈ 101 µg/mL). This compound returned an MCC at 24 h in data set [2] of 670 µM.
On to `NC(=O)C12CCCC3CC(CCC31)C2` (stereo not given), for which, in the data set on Newcastle disease virus [1], the MIC was 2600 µM (≈ 503 µg/mL). Besides, the MCC at 24 h in data set [2] amounted to 5200 µM.
As for `NC12CC3CC(CC(C3)C1)C2` [AMANTADINE HYDROCHLORIDE], in the data set with Newcastle disease virus [1], the MIC was determined as 1300 µM. In data set [2], this compound came in with an MCC at 24 h of 1300 µM.
Take `CNC(=O)C12CCCC3CC(CCC31)C2` (stereo not given): the MIC in the data set with Newcastle disease virus [1] came to 3000 µM (≈ 622 µg/mL). Further, the MCC at 24 h in data set [2] was 750 µM.
On to `C1=C2CCCC3CC1CCC23` (stereo not given), for which the MCC entry in data set [2] is “ND(Unstable)”.
For `N#CC12CCCC3CC(CCC31)C2` (stereo not given), in the data set on Newcastle disease virus [1], the MIC amounted to 570 µM (≈ 99.9 µg/mL). In data set [2], this compound had an MCC at 24 h of 850 µM.

(Values after ChEMBL document CHEMBL3271944, “Biologically active polycycloalkanes. 2. Antiviral 4-homoisotwistane derivatives” (J Med Chem, 1976).)
